Assay [1] deals with human Cereblon WT GST-tagged protein (Homo sapiens (Human), UniProt Q96SW2). The experiment in a line: CRBN-binding affinity, HTRF (CEREBLON BINDING kit). The procedure, abridged: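 GST-tagged human WT Cereblon incubated with compound, then Thalidomide-Re tracer and anti-GST Eu antibody added. Displacement read by HTRF, reported as CRBN binding inhibition rate against blank control wells without protein.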
(TR-FRET usually uses a lanthanide donor and a delayed reading to cut background.)

A further assay has as its target IKZF1 protein (Homo sapiens (Human), UniProt Q13422+Q96SW2). Put plainly: Western-blot assay of substrate protein degradation in hPBMC, IKZF1. The assay is classed as cell-based. Conditions: for residual substrate protein level, IKZF1: hPBMC cells, compound 500 nM, 24 hours, Western blot. (In general: Immunoblotting shows a protein as a band on a membrane.)
The target of another assay is IKZF3 protein (Homo sapiens (Human), UniProt Q96SW2+Q9UKT9). The experiment in a line: Western-blot assay of substrate protein degradation in hPBMC, IKZF3. It counts as cell-based. Conditions: for residual substrate protein level, IKZF3: hPBMC cells, compound 500 nM, 24 hours, Western blot.
Chain of IKZF3 protein (Q9UKT9 whole entry): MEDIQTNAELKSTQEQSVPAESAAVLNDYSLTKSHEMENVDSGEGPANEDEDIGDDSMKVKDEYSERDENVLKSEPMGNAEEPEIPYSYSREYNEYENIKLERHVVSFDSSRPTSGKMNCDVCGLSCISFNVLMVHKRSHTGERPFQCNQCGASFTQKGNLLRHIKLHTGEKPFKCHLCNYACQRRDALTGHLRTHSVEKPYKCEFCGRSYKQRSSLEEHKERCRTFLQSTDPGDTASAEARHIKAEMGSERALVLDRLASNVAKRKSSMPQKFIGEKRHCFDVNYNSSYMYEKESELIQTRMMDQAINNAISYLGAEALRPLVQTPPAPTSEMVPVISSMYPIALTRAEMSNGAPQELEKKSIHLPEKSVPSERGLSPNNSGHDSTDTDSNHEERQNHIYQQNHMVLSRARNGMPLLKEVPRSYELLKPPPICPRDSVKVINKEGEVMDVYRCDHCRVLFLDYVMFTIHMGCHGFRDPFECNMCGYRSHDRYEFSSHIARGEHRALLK
Chain of IKZF3 protein (Q96SW2 whole entry): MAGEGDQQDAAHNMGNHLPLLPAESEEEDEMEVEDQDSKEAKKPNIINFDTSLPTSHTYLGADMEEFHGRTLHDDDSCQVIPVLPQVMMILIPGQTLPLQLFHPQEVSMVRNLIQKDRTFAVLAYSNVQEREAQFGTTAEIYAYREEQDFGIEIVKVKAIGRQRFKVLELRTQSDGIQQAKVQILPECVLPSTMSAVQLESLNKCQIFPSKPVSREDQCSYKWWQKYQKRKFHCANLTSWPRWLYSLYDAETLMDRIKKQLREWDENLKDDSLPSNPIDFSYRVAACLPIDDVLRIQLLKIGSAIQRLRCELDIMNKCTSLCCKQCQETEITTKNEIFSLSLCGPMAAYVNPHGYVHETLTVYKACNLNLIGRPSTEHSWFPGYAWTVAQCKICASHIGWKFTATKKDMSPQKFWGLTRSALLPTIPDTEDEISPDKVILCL
Chain of IKZF3 protein (Q16531 whole entry partner): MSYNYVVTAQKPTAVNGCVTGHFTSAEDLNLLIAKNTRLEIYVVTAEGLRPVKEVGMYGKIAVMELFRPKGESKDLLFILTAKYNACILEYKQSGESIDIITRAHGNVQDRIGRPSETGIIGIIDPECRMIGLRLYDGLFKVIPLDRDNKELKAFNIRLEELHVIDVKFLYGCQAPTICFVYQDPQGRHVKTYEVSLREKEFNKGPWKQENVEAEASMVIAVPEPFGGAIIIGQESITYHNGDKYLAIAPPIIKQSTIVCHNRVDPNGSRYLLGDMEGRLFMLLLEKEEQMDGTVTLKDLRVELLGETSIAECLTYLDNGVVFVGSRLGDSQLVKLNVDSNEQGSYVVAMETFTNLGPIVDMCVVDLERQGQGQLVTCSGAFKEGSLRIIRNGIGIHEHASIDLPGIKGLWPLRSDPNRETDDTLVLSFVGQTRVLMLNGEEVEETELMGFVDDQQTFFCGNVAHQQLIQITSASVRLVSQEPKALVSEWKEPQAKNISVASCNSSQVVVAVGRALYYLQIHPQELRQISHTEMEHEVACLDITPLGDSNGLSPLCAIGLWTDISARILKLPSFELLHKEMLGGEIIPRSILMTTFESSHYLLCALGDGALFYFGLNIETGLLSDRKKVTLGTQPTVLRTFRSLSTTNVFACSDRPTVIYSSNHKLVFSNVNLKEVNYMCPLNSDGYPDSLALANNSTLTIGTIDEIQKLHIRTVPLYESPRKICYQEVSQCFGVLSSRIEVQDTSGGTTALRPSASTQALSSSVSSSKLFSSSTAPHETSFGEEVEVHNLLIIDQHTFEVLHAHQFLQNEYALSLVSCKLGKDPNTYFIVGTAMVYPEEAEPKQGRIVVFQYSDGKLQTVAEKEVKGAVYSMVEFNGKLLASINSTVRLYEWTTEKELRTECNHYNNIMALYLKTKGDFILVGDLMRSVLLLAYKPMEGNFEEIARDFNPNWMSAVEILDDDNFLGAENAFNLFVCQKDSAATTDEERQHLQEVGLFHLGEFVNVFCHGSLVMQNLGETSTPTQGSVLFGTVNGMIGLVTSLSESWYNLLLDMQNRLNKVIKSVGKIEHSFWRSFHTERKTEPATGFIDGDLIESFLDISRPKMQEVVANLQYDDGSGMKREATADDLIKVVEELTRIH
The test system of the next assay is Mino cells. Put plainly: Tumor cell proliferation IC50 (CCK-8), Mino.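 Further: cell viability assessed with CCK-8 reagent after compound exposure, IC50 derived from plotted growth inhibition curves.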 The following applies: Homo sapiens, 72 h, read-out: IC50 for inhibiting the proliferation of tumor cells, Mino.
The next assay relates to MM.1S cells. The experiment in a line: Tumor cell proliferation IC50 (CCK-8), MM.1S.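 Further: viability of cultured cells read by CCK-8 reagent after compound exposure, growth inhibition curves fitted to derive IC50.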 The following applies: Homo sapiens, MM1.S, 72 h, read-out: IC50 for inhibiting the proliferation of tumor cells, MM.1S.
The next assay addresses GSPT1 protein (Homo sapiens (Human), UniProt P15170+Q96SW2). The experiment in a line: Western-blot assay of substrate protein degradation in hPBMC, GSPT1. The assay is classed as cell-based. The following applies: for residual substrate protein level, GSPT1: hPBMC cells, compound 500 nM, 24 hours, Western blot.
A further assay has as its system Daudi cells. Put plainly: Tumor cell proliferation IC50 (CCK-8), Daudi.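 Further: cell viability read with CCK-8 reagent after compound exposure of Daudi cells, IC50 derived from plotted growth inhibition curves.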 Conditions: Homo sapiens, read-out: IC50 for inhibiting the proliferation of tumor cells, Daudi.
The test system of the next assay is CCRF-CEM cells. The experiment in a line: Tumor cell proliferation IC50 (CCK-8), CCRF-CEM.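 Further: cell viability measured with CCK-8 reagent after compound treatment, IC50 taken from plotted growth inhibition curves.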 The following applies: Homo sapiens, 96 h, read-out: IC50 for inhibiting the proliferation of tumor cells, CCRF-CEM.
[2] abbreviates: hPBMC, 24 h, serially diluted 0.03-1000 nM.

Chain of GSPT1 protein (P15170 whole entry): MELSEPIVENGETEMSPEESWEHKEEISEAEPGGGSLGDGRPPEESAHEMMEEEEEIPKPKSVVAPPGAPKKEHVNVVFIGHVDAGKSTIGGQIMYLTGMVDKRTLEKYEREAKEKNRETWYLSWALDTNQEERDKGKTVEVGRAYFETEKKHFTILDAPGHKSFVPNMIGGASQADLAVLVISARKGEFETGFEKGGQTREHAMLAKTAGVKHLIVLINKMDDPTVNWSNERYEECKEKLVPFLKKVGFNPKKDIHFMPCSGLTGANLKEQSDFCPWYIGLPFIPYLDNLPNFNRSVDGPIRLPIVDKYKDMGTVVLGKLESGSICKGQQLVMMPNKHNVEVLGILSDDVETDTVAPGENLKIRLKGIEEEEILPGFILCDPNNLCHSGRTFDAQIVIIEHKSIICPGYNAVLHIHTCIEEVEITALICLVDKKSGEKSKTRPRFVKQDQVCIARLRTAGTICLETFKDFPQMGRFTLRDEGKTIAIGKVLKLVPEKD
Chain of GSPT1 protein (Q96SW2 whole entry): as the sequence (Q96SW2 whole entry) above
Chain of GSPT1 protein (Q16531 whole entry partner): as the sequence (Q16531 whole entry partner) above
Chain of IKZF1 protein (Q13422 whole entry): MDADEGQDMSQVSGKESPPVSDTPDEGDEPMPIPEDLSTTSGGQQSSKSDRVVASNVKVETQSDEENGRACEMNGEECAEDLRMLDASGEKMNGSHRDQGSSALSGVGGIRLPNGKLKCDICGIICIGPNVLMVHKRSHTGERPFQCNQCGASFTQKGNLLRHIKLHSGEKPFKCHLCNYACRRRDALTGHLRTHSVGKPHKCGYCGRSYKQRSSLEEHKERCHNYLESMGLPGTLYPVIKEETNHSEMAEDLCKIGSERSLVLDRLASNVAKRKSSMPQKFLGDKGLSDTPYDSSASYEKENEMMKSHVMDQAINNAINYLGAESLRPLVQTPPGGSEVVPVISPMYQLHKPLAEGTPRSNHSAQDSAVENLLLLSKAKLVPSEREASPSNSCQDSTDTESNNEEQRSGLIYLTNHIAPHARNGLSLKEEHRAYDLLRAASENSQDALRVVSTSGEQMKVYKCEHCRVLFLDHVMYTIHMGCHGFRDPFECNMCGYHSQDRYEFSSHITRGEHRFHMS
Chain of IKZF1 protein (Q96SW2 whole entry): as the sequence (Q96SW2 whole entry) above
Chain of IKZF1 protein (Q16531 whole entry partner): as the sequence (Q16531 whole entry partner) above
Chain of human Cereblon WT GST-tagged protein (Q96SW2 whole entry): as the sequence (Q96SW2 whole entry) above
Procedure for CCRF-CEM cells: The tumor cells used herein were cultured in a cell culture medium listed in table A at 37° C. in an incubator with 5% CO2.
After the cells were treated with the compounds of the present disclosure for a period of time, the cell viability detection reagent was added to the culture medium for cell viability assessment according to the instructions provided with the CCK-8 kit. […] The growth inhibition of the compounds of the present disclosure on cells was plotted by Prism Graphpad software, and the IC50 values of the compounds of the present disclosure were calculated therefrom.

Regarding `O=C1CCC(N2Cc3cc(CN4CCN(Cc5ccc(-c6cccs6)s5)CC4)ccc3C2=O)C(=O)N1` (centres unmarked) [GT-05624, 3-(5-((4-([2,2′-bithiophen]-5-ylmethyl)piperazin-1-yl)methyl)-1-oxoisoindolin-2-yl)piperidine-2,6-dione], the IC50 was 470 nM in assay [1], 10 to 50 nM with Mino cells, 100 to 500 nM in the assay with MM.1S cells and 500 to 1000 nM with Daudi cells. Further, the “residual substrate protein level, IKZF1” value on IKZF1 protein is reported as “A (A represents a residual substrate protein level of <50%)”. On IKZF3 protein, the “residual substrate protein level, IKZF3” value is given as “A (A represents a residual substrate protein level of <50%)”. Also, the “residual substrate protein level, GSPT1” value at GSPT1 protein is “B (B represents a residual substrate protein level of >50%)”.
As to `O=C1CCC(N2Cc3cc(CN4CCN(Cc5ccccc5-c5cncs5)CC4)ccc3C2=O)C(=O)N1` (centres unmarked) [GT-05684, 3-(1-oxo-5-((4-(2-(thiazol-5-yl)benzyl)piperazin-1-yl)methyl)isoindolin-2-yl)piperidine-2,6-dione], the IC50 in assay [1] was 540 nM; in the assay on CCRF-CEM cells, 100 to 500 nM; in the assay on Mino cells, 10 to 50 nM; with MM.1S cells, 50 to 100 nM. In addition, the “residual substrate protein level, IKZF1” value at IKZF1 protein is recorded as “A (A represents a residual substrate protein level of <50%)”. Moreover, at IKZF3 protein, the “residual substrate protein level, IKZF3” value is listed as “A (A represents a residual substrate protein level of <50%)”. Besides, the “residual substrate protein level, GSPT1” value on GSPT1 protein was “A (A represents a residual substrate protein level of <50%)”.
As for `O=C1CCC(N2Cc3cc(CN4CCN(Cc5ccc(-c6ccco6)s5)CC4)ccc3C2=O)C(=O)N1` (centres unmarked) [GT-05780, 3-(5-((4-((5-(furan-2-yl)thiophen-2-yl)methyl)piperazin-1-yl)methyl)-1-oxoisoindolin-2-yl)piperidine-2,6-dione], the IC50 in assay [1] is 230 nM; with Mino cells, 5 to 10 nM; with MM.1S cells, 500 to 1000 nM; with Daudi cells, 100 to 500 nM. For the same molecule, on IKZF1 protein, the “residual substrate protein level, IKZF1” value is “A (A represents a residual substrate protein level of <50%)”. The “residual substrate protein level, IKZF3” value at IKZF3 protein was “A (A represents a residual substrate protein level of <50%)”. Besides, the “residual substrate protein level, GSPT1” value at GSPT1 protein is “A (A represents a residual substrate protein level of <50%)”.
In the case of `CC1(C)CCC(C(=O)N2CC3(CN(Cc4ccc5c(c4)CN(C4CCC(=O)NC4=O)C5=O)C3)C2)=C(c2ccc(Cl)cc2)C1` (centres unmarked) [GT-05681, 3-(5-((6-(4′-chloro-5,5-dimethyl-3,4,5,6-tetrahydro-[1,1′-biphenyl]-2-carbonyl)-2,6-diazaspiro[3.3]heptan-2-yl)methyl)-1-oxoisoindolin-2-yl)piperidine-2,6-dione], the IC50 in assay [1] is 460 nM; in the assay with CCRF-CEM cells, 100 to 500 nM; in the assay on Mino cells, 100 to 500 nM; in the assay with MM.1S cells, 50 to 100 nM. Moreover, at IKZF1 protein, the “residual substrate protein level, IKZF1” value is given as “B (B represents a residual substrate protein level of >50%)”. Further, the “residual substrate protein level, IKZF3” value at IKZF3 protein is “A (A represents a residual substrate protein level of <50%)”. The “residual substrate protein level, GSPT1” value at GSPT1 protein is on record as “A (A represents a residual substrate protein level of <50%)”.
On to `O=C1CCC(N2Cc3cc(CN4CCN(Cc5ccc(-c6ccco6)cc5)CC4)ccc3C2=O)C(=O)N1` (centres unmarked) [GT-05693, 3-(5-((4-(4-(furan-2-yl)benzyl)piperazin-1-yl)methyl)-1-oxoisoindolin-2-yl)piperidine-2,6-dione], for which the IC50 in assay [1] is 310 nM; with Mino cells it was 10 to 50 nM; in the assay on MM.1S cells, 100 to 500 nM; with Daudi cells, 500 to 1000 nM. Further, the “residual substrate protein level, IKZF1” value on IKZF1 protein is “B (B represents a residual substrate protein level of >50%)”. The “residual substrate protein level, IKZF3” value at IKZF3 protein is reported as “A (A represents a residual substrate protein level of <50%)”. Further, the “residual substrate protein level, GSPT1” value at GSPT1 protein is on record as “B (B represents a residual substrate protein level of >50%)”.
In the case of `O=C1CCC(N2Cc3cc(CN4CCN(Cc5ccc(-c6ccc(Cl)cc6)s5)CC4)ccc3C2=O)C(=O)N1` (centres unmarked) [GT-05625, 3-(5-((4-((5-(4-chlorophenyl)thiophen-2-yl)methyl)piperazin-1-yl)methyl)-1-oxoisoindolin-2-yl)piperidine-2,6-dione], the IC50 was 1670 nM in assay [1], 50 to 100 nM in the assay on Mino cells, 100 to 500 nM with MM.1S cells and 100 to 500 nM in the assay with Daudi cells. In addition, the “residual substrate protein level, IKZF1” value at IKZF1 protein is on record as “B (B represents a residual substrate protein level of >50%)”. Further, the “residual substrate protein level, IKZF3” value on IKZF3 protein was “B (B represents a residual substrate protein level of >50%)”. At GSPT1 protein, the “residual substrate protein level, GSPT1” value is recorded as “B (B represents a residual substrate protein level of >50%)”.
In the case of `O=C1CCC(N2Cc3cc(CN4CCN(Cc5ccc(-c6ccc(Cl)cc6)nc5)CC4)ccc3C2=O)C(=O)N1` (centres unmarked) [GT-05632, 3-(5-((4-((6-(4-chlorophenyl)pyridin-3-yl)methyl)piperazin-1-yl)methyl)-1-oxoisoindolin-2-yl)piperidine-2,6-dione], the IC50 in assay [1] is 720 nM; in the assay with Mino cells it was less than 5 nM; in the assay on MM.1S cells, 100 to 500 nM; with Daudi cells, 10 to 50 nM.
Consider `CC1(C)CCC(CN2CCN(Cc3ccc4c(c3)CN(C3CCC(=O)NC3=O)C4=O)CC2)=C(c2cncs2)C1` (centres unmarked) [GT-05791, 3-(5-((4-((4,4-dimethyl-2-(thiazol-5-yl)cyclohex-1-en-1-yl)methyl)piperazin-1-yl)methyl)-1-oxoisoindolin-2-yl)piperidine-2,6-dione], for which the IC50 in assay [1] was 730 nM; in the assay with Mino cells, 10 to 50 nM; in the assay on MM.1S cells it was 10 to 50 nM; in the assay on Daudi cells, 500 to 1000 nM. Further, on IKZF1 protein, the “residual substrate protein level, IKZF1” value is “A (A represents a residual substrate protein level of <50%)”. The “residual substrate protein level, IKZF3” value at IKZF3 protein is listed as “A (A represents a residual substrate protein level of <50%)”. Moreover, the “residual substrate protein level, GSPT1” value on GSPT1 protein is listed as “B (B represents a residual substrate protein level of >50%)”.
Regarding `O=C1CCC(N2Cc3cc(CN4CC5(CCN(C(=O)c6ccccc6-c6ccc(Cl)cc6)CC5)C4)ccc3C2=O)C(=O)N1` (centres unmarked) [GT-05620, 3-(5-((7-(4′-chloro-[1,1′-biphenyl]-2-carbonyl)-2,7-diazaspiro[3.5]nonan-2-yl)methyl)-1-oxoisoindolin-2-yl)piperidine-2,6-dione], the IC50 in assay [1] was 590 nM; in the assay on CCRF-CEM cells, 100 to 500 nM; with Mino cells, 100 to 500 nM; in the assay on MM.1S cells, 10 to 50 nM. For the same molecule, at IKZF1 protein (setting [2]), the “concentration at which significant degradation effects on IKZF1 protein are exhibited (FIG. 1)” value is less than 3 nM. Besides, the “concentration at which significant degradation effects on IKZF3 protein are exhibited (FIG. 1)” value on IKZF3 protein (setting [2]) is less than 3 nM. Further, the “concentration at which significant degradation effects on GSPT1 protein are exhibited (FIG. 1)” value on GSPT1 protein (setting [2]) was less than 3 nM.
For the molecule `O=C1CCC(N2Cc3cc(CN4CCN(Cc5cnccc5-c5ccc(Cl)cc5)CC4)ccc3C2=O)C(=O)N1` (centres unmarked) [GT-05703, 3-(5-((4-((4-(4-chlorophenyl)pyridin-3-yl)methyl)piperazin-1-yl)methyl)-1-oxoisoindolin-2-yl)piperidine-2,6-dione], the IC50 was 530 nM in assay [1], 10 to 50 nM in the assay on Mino cells, 5 to 10 nM in the assay with MM.1S cells and 100 to 500 nM in the assay on Daudi cells. Also, the “residual substrate protein level, IKZF1” value on IKZF1 protein was “A (A represents a residual substrate protein level of <50%)”. Moreover, at IKZF3 protein, the “residual substrate protein level, IKZF3” value is reported as “A (A represents a residual substrate protein level of <50%)”. Moreover, the “residual substrate protein level, GSPT1” value on GSPT1 protein is given as “B (B represents a residual substrate protein level of >50%)”.
Turning to `O=C1CCC(N2Cc3cc(CN4CC5(C4)CN(Cc4ccccc4-c4ccc(Cl)cc4)C5)ccc3C2=O)C(=O)N1` (centres unmarked) [GT-05709, 3-(5-((6-((4′-chloro-[1,1′-biphenyl]-2-yl)methyl)-2,6-diazaspiro[3.3]heptan-2-yl)methyl)-1-oxoisoindolin-2-yl)piperidine-2,6-dione], the IC50 in assay [1] is 660 nM; in the assay on CCRF-CEM cells, 10 to 50 nM; in the assay on Mino cells it was 50 to 100 nM; with MM.1S cells, 10 to 50 nM. For the same molecule, on IKZF1 protein, the “residual substrate protein level, IKZF1” value is reported as “A (A represents a residual substrate protein level of <50%)”. Moreover, the “residual substrate protein level, IKZF3” value at IKZF3 protein is given as “A (A represents a residual substrate protein level of <50%)”. The “residual substrate protein level, GSPT1” value at GSPT1 protein is “A (A represents a residual substrate protein level of <50%)”.
Take `O=C1CCC(N2Cc3cc(CN4CCN(Cc5ccc(-c6ccncc6)nc5)CC4)ccc3C2=O)C(=O)N1` (centres unmarked) [GT-05633, 3-(5-((4-([2,4′-bipyridin]-5-ylmethyl)piperazin-1-yl)methyl)-1-oxoisoindolin-2-yl)piperidine-2,6-dione]: the figures for the IC50 (in assay [1]; with Mino cells; with Daudi cells) were 760 nM, less than 5 nM and 100 to 500 nM, respectively. In addition, at IKZF1 protein, the “residual substrate protein level, IKZF1” value is “A (A represents a residual substrate protein level of <50%)”. In addition, the “residual substrate protein level, IKZF3” value on IKZF3 protein is “A (A represents a residual substrate protein level of <50%)”. For the same molecule, the “residual substrate protein level, GSPT1” value on GSPT1 protein was “B (B represents a residual substrate protein level of >50%)”.

These data come from patent US20260028326A1, “COMPOUND BASED ON ISOINDOLINE-SUBSTITUTED GLUTARIMIDE BACKBONE AND USE THEREOF” (GLUETACS THERAPEUTICS (SHANGHAI) CO., LTD., priority 2022, published 2026).
